One experiment has as its target PDE (Peak III). Briefly: Inhibition of phosphodiesterases, PDE (Peak III) enzyme assay. Type of experiment: biochemical. Conditions: PDE (Peak III) from cat heart, 1 µM cyclic AMP. Here is the method: Sepharose is a registered trademark of Pharmacia Fine Chemicals Inc. The high-speed supernatant from a cat heart homogenate (2 g tissue in 20 ml 20 mM PiPES - (Piperazine-N-N'-bis[2-ethanesulfonic acid]), 50 mM Na acetate, pH 6.5) was applied to a 15 ^x 1.5 cm column of DEAE-Sepharose equilibrated with the homogenisation buffer. The PDE activities were eluted with a gradient of 0.05-1 M Na acetate in 20 mM PIPES.
The enzyme was assayed by incubation at 37° for 4-30 min in 50 mM Tris, 5 mM MgCl2, pH 7.5 with [3-H] cyclic nucleotide (4 ^x 10^5 disintegrations min-') and [14-C] nucleotide 5' monophosphate (3 ^x 10^3 disintegrations min^-1). The assay was stopped by boiling, and the [3-H] […] The reaction mixture was diluted with 0.5 ml 100 mM HEPES (N-2-Hydroxyethylpiperazine-N'-2-ethanesulfonic acid), 100 mM NaCl, pH 8.5, and applied to the column. The column was extensively washed with the same buffer, and the 5' nucleotide eluted with 6 ml 025 M acetic acid.

The next experiment deals with anaesthetised cats. Kind of experiment: Cardiac stimulant activity in vivo (anaesthetised cats). Conditions: anaesthetised cats pretreated with pempidine and propranolol, administered intravenously; for ED50: Felis catus, iv, read-out: ED50 (dose to increase left ventricular dp/dt max by 50%).
A further experiment relates to ventricular strips. Briefly: Cardiac stimulant activity in vitro (electrically stimulated ventricular strips). The experiment is classed as cell-based, Guinea pigs. Conditions: Cavia porcellus; guinea pig right ventricle strips, stimulated at 1.0 Hz, Krebs Henseleit solution at 37°C, concentration in the bathing fluid; read-out: EC50 (50% increase in the force of contraction of the ventricular strips). Here is the method:
The compounds of formula (I) and their pharmaceutically acceptable salts are tested for cardiac stimulant activity following a procedure based on that of S.C. Verma and J. H. McNeill (J.Pharm & Exp. Therapeutics, 200, 352-362 (1977)). Guinea pigs (500-700 g) of either sex are sacrificed and the hearts are quickly removed and transferred to a dissecting dish containing oxygenated bathing fluid. While in the bathing medium, the right ventricle is cut into two strips. The strips are each suspended in a 50 ml bath containing Krebs Henseleit solution at 37°C, and the bath is bubbled with 95% oxygen and 5% carbon dioxide. The ventricular strips are electrically stimulated at a frequency of 1.0 Hz, at double the threshold voltage. A resting tension of 1.0 g is applied to the strips and the tension is kept constant by readjustment during an equilibration period of 60 minutes. The bathing fluid is frequently changed during this period. When a steady base line is obtained, a compound under test is added to the bathing fluid and a cumulative concentration response curve is plotted.

As usually defined, the IC50 is the concentration at which inhibition is half-maximal. Low values mean greater potency, high ones weaker potency.

`Cc1[nH]c(=O)c(C#N)cc1-c1ccncc1` (single isomer, unassigned) [Milrinone]: half-maximal inhibition on PDE (Peak III) (IC50) was put at 2.2 µM.
`Nc1cc(-c2ccncc2)c[nH]c1=O` [Amrinone] showed a 50% inhibitory concentration (IC50) against PDE (Peak III) of 51.8 µM. Moreover, in the experiment with anaesthetised cats, the ED50 came out at 5.6 µmol/kg and the duration of activity entry is “short duration of activity”.
Consider `CC1CC(=O)NN=C1c1ccc(NC2=NC(=O)CN2)cc1` (centres unmarked) [Example 1, 6-[4-(4-Oxo-2-imidazolin-2-ylamino)phenyl]-5-methyl-4,5-dihydro-3(2H)-pyridazinone], for which the EC50 in the experiment on ventricular strips was 14 µM. The same compound displayed an IC50 against PDE (Peak III) of 1.84 µM. For the same compound, in the experiment on anaesthetised cats, the ED50 stood at 0.4 µmol/kg and the duration of activity entry was “long duration of activity”.
